Results reported in the NIST ThermoML archive (doi:10.1021/acs.jced.5b00627).

What was measured:
[1] = mn = molality of the nth substance listed, in mol/kg; conditions: 100 kPa, Liquid; for viscosity: Capillary tube (Ostwald / Ubbelohde) method; for speed of sound: Frequency=3 MHz, Sing-around technique in a fixed-path interferometer; for mass density: Vibrating tube method
[2] = for Normal melting temperature: Crystal, DTA; for viscosity: 100 kPa, Capillary tube (Ostwald / Ubbelohde) method; for viscosity / speed of sound / mass density: Liquid; for speed of sound / mass density: 101.33 kPa; for speed of sound: Sing-around technique in a fixed-path interferometer; for mass density: Vibrating tube method

COc1cc(-c2cc(-c3ccc(O)cc3)[nH]c(=O)c2C#N)ccc1O + C[S+](C)[O-]
[1]
Conditions | mass density, 298.15 K [kg/m3] | mass density, 308.15 K [kg/m3] | mass density, 318.15 K [kg/m3] | speed of sound, 298.15 K [m/s] | speed of sound, 308.15 K [m/s] | speed of sound, 318.15 K [m/s] | viscosity, 298.15 K [mPa·s] | viscosity, 308.15 K [mPa·s] | viscosity, 318.15 K [mPa·s]
m1 = 0.01 | 1096.12 | 1086.44 | 1076.45 | 1486.3 | 1452.4 | 1419 | 1.885 | 1.544 | 1.265
m1 = 0.02 | 1097.17 | 1087.19 | 1077.22 | 1487.3 | 1453.2 | 1420.1 | 1.963 | 1.576 | 1.312
m1 = 0.04 | 1098.34 | 1088.48 | 1078.49 | 1488.9 | 1454.5 | 1421.5 | 2.06 | 1.623 | 1.364
m1 = 0.06 | 1099.52 | 1089.69 | 1079.59 | 1490.6 | 1455.6 | 1422.7 | 2.144 | 1.663 | 1.392
m1 = 0.08 | 1100.69 | 1090.67 | 1080.74 | 1492 | 1456.5 | 1424 | 2.243 | 1.704 | 1.421
m1 = 0.1 | 1101.86 | 1091.98 | 1081.94 | 1493.7 | 1457.4 | 1425.1 | 2.323 | 1.729 | 1.462

C[S+](C)[O-] [dimethyl sulfoxide] + COc1cc(-c2cc(-c3ccc(Cl)cc3)[nH]c(=O)c2C#N)ccc1O
[1], m2 = 0
Conditions | mass density [kg/m3] | speed of sound [m/s] | viscosity [mPa·s]
298.15 K | 1095.28 | 1484.8 | 1.814
308.15 K | 1085.23 | 1450.9 | 1.472
318.15 K | 1075.19 | 1417.4 | 1.176

COc1cc(-c2cc(-c3ccc(O)cc3)[nH]c(=O)c2C#N)ccc1O
Conditions | Normal melting temperature [°C]
[2] | 326.33

C[S+](C)[O-] [dimethyl sulfoxide] + COc1cc(-c2cc(-c3ccccc3)[nH]c(=O)c2C#N)ccc1O
[1], m2 = 0
Conditions | mass density [kg/m3] | speed of sound [m/s] | viscosity [mPa·s]
298.15 K | 1095.28 | 1484.8 | 1.814
308.15 K | 1085.23 | 1450.9 | 1.472
318.15 K | 1075.19 | 1417.4 | 1.176

C[S+](C)[O-] [dimethyl sulfoxide]
[2]
Conditions | mass density [kg/m3] | speed of sound [m/s] | viscosity [mPa·s]
298.15 K | 1095.28 | 1484.8 | 1.814
308.15 K | 1085.23 | 1450.9 | 1.472
318.15 K | 1075.19 | 1417.4 | 1.176

C[S+](C)[O-] [dimethyl sulfoxide] + COc1cc(-c2cc(-c3ccccc3O)[nH]c(=O)c2C#N)ccc1O
[1], m2 = 0
Conditions | mass density [kg/m3] | speed of sound [m/s] | viscosity [mPa·s]
298.15 K | 1095.28 | 1484.8 | 1.814
308.15 K | 1085.23 | 1450.9 | 1.472
318.15 K | 1075.19 | 1417.4 | 1.176

COc1cc(-c2cc(-c3ccccc3)[nH]c(=O)c2C#N)ccc1O
Conditions | Normal melting temperature [°C]
[2] | 343.12

COc1cc(-c2cc(-c3ccccc3O)[nH]c(=O)c2C#N)ccc1O + C[S+](C)[O-]
[1]
Conditions | mass density, 298.15 K [kg/m3] | mass density, 308.15 K [kg/m3] | mass density, 318.15 K [kg/m3] | speed of sound, 298.15 K [m/s] | speed of sound, 308.15 K [m/s] | speed of sound, 318.15 K [m/s] | viscosity, 298.15 K [mPa·s] | viscosity, 308.15 K [mPa·s] | viscosity, 318.15 K [mPa·s]
m1 = 0.01 | 1096.09 | 1086.41 | 1076.4 | 1486 | 1452.1 | 1418.6 | 1.88 | 1.535 | 1.247
m1 = 0.02 | 1097.16 | 1087.16 | 1077.18 | 1487 | 1453.1 | 1419.5 | 1.958 | 1.57 | 1.287
m1 = 0.04 | 1098.32 | 1088.47 | 1078.47 | 1488.6 | 1454.2 | 1420.8 | 2.037 | 1.608 | 1.327
m1 = 0.06 | 1099.5 | 1089.66 | 1079.56 | 1490.2 | 1455.2 | 1422 | 2.124 | 1.645 | 1.359
m1 = 0.08 | 1100.68 | 1090.65 | 1080.71 | 1491.7 | 1456.3 | 1423 | 2.201 | 1.685 | 1.399
m1 = 0.1 | 1101.83 | 1091.96 | 1081.9 | 1493.5 | 1457 | 1424.3 | 2.301 | 1.716 | 1.458

COc1cc(-c2cc(-c3ccc(Cl)cc3)[nH]c(=O)c2C#N)ccc1O + C[S+](C)[O-]
[1]
Conditions | mass density, 298.15 K [kg/m3] | mass density, 308.15 K [kg/m3] | mass density, 318.15 K [kg/m3] | speed of sound, 298.15 K [m/s] | speed of sound, 308.15 K [m/s] | speed of sound, 318.15 K [m/s] | viscosity, 298.15 K [mPa·s] | viscosity, 308.15 K [mPa·s] | viscosity, 318.15 K [mPa·s]
m1 = 0.01 | 1096.42 | 1086.43 | 1076.43 | 1486.1 | 1452.4 | 1418.9 | 1.954 | 1.545 | 1.264
m1 = 0.02 | 1097.3 | 1087.47 | 1077.19 | 1487.2 | 1453.4 | 1419.9 | 1.993 | 1.571 | 1.294
m1 = 0.04 | 1098.53 | 1088.83 | 1078.52 | 1488.4 | 1454.7 | 1421 | 2.037 | 1.614 | 1.324
m1 = 0.06 | 1099.79 | 1089.98 | 1079.89 | 1489.6 | 1455.9 | 1422.2 | 2.081 | 1.655 | 1.355
m1 = 0.08 | 1100.99 | 1091.08 | 1080.99 | 1490.5 | 1456.7 | 1423.2 | 2.129 | 1.699 | 1.391
m1 = 0.1 | 1102.29 | 1092.32 | 1082.35 | 1491.1 | 1457.6 | 1424.5 | 2.172 | 1.73 | 1.427

C[S+](C)[O-] [dimethyl sulfoxide] + COc1cc(-c2cc(-c3ccc(O)cc3)[nH]c(=O)c2C#N)ccc1O
[1], m2 = 0
Conditions | mass density [kg/m3] | speed of sound [m/s] | viscosity [mPa·s]
298.15 K | 1095.28 | 1484.8 | 1.814
308.15 K | 1085.23 | 1450.9 | 1.472
318.15 K | 1075.19 | 1417.4 | 1.176

COc1cc(-c2cc(-c3ccccc3O)[nH]c(=O)c2C#N)ccc1O
Conditions | Normal melting temperature [°C]
[2] | 234.49

COc1cc(-c2cc(-c3ccc(Cl)cc3)[nH]c(=O)c2C#N)ccc1O
Conditions | Normal melting temperature [°C]
[2] | 328.34

COc1cc(-c2cc(-c3ccccc3)[nH]c(=O)c2C#N)ccc1O + C[S+](C)[O-]
[1]
Conditions | mass density, 298.15 K [kg/m3] | mass density, 308.15 K [kg/m3] | mass density, 318.15 K [kg/m3] | speed of sound, 298.15 K [m/s] | speed of sound, 308.15 K [m/s] | speed of sound, 318.15 K [m/s] | viscosity, 298.15 K [mPa·s] | viscosity, 308.15 K [mPa·s] | viscosity, 318.15 K [mPa·s]
m1 = 0.01 | 1096.02 | 1086.02 | 1076.08 | 1485.9 | 1451.9 | 1418.1 | 1.876 | 1.525 | 1.242
m1 = 0.02 | 1096.69 | 1086.78 | 1076.69 | 1486.8 | 1452.8 | 1419.1 | 1.916 | 1.562 | 1.276
m1 = 0.04 | 1097.59 | 1087.93 | 1077.85 | 1488 | 1453.9 | 1420.5 | 1.976 | 1.603 | 1.319
m1 = 0.06 | 1098.59 | 1088.74 | 1078.84 | 1489.1 | 1455 | 1421.6 | 2.02 | 1.638 | 1.345
m1 = 0.08 | 1099.69 | 1089.59 | 1079.75 | 1490.3 | 1456 | 1422.6 | 2.063 | 1.668 | 1.37
m1 = 0.1 | 1100.84 | 1090.64 | 1080.75 | 1491 | 1456.8 | 1423.7 | 2.107 | 1.697 | 1.41
